In patent US11109593B2, “Isoxazolin-5-one derivative and herbicide containing same as active ingredient” (HOKKO CHEMICAL INDUSTRY CO., LTD., priority 2017, dated 2021):

Key:
Type in all cases: in vivo
[1] = tested on: Scirpus juncoides; experiment: Test Example 1: herbicidal effect test by treatment of rice paddy soil (immediately after seeding)
Procedure, shortened: (§1)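 Puddled, fertilized (N:P:K=17:17:17) paddy soil in Wagner pots; seeds sown 0–1 cm deep, flooded to about 3 cm. Emulsifiable formulations diluted in water and dropped into the water immediately after seeding at 120 g active ingredient per 10 ares; greenhouse. Herbicidal rate from dry weight vs untreated at 14 days.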

[2] = tested on: broad leaf weeds (Lindernia pyxidaria and Monochoria vaginalis); experiment: as above
Procedure, shortened: as §1

[3] = tested on: Echinochloa crus-galli; experiment: as above
Procedure, shortened: as §1

[4] = tested on: Chenopodium album; experiment: Test Example 3: herbicidal effect test by treatment of dry field farming soil (one day after seeding); conditions: 120 g/10a active ingredient, evaluated 14 days after treatment
Procedure: (§2) This test was conducted in a double system per one agent solution concentration area, and the herbicidal rates (%) were determined by the following equation (Math. 1) on 14 days after the treatment with the agents. Herbicidal Rate (%)={1-(Average Dry Weight (g) of Plant of Treated Area)/(Average Dry Weight (g) of Plant of Untreated Area)}×100 [Math. 1]
(§3) Herbicidal Effect Test by Treatment of Dry Field Farming Soil
(§4) Pots with a size of 36 cm^2 were filled with a dry field farming soil (alluvium). The soil of the top layer of 1 cm and seeds of weeds, namely southern crabgrass, Echinochloa crus-galli, Chenopodium album and Amaranthus viridis, 20 seeds each, were evenly mixed, and the top layer was gently pressed. Emulsions prepared using the compounds in Table 5 below according to Formulation Example 5 were diluted with water one day after seeding, and the water-diluted agent solutions were sprayed to the soil surfaces at a ratio of 100 liters per 10 ares. The converted amount of the applied active ingredient corresponded to 120 g per 10 ares. The herbicidal effects were evaluated by the same standard as that in Test Example 1 on 14 days after the treatment with the agents. […] The compound numbers in Table 5 are the same as those in Table 1 and Table 2 above.

[5] = tested on: Echinochloa crus-galli; experiment: as above; conditions: 120 g/10a active ingredient, evaluated 14 days after treatment
Procedure: as §2, §3, §4

[6] = tested on: Amaranthus viridis; experiment: as above; conditions: 120 g/10a active ingredient, evaluated 14 days after treatment
Procedure: as §2, §3, §4

[7] = tested on: southern crabgrass; experiment: as above; conditions: 120 g/10a active ingredient, evaluated 14 days after treatment
Procedure: as §2, §3, §4

[8] = tested on: Scirpus juncoides; experiment: Test Example 2: herbicidal effect test by treatment during growing period in paddy rice cultivation (seven days after seeding); conditions: for Herbicidal rate (%) Scirpus juncoides: 120 g/10a active ingredient, assessed 14 days after treatment, dry weight vs untreated area; for herbicidal rate, Scirpus juncoides: 120 g/10a, rated 14 days after treatment, paddy soil pots
Procedure, shortened: (§5)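 Sow 30 seeds per species (0–1 cm) into puddled, fertilized paddy soil; keep flooded ~3 cm in greenhouse. Day 7 after seeding: drop water-diluted emulsion, 120 g a.i./10 ares. Harvest 14 d post-treatment; compare dry weight with untreated pots (duplicate).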

[9] = tested on: broad leaf weeds (Lindernia pyxidaria and Monochoria vaginalis); experiment: as above; conditions: for Herbicidal rate (%) Lindernia pyxidaria / Herbicidal rate (%) Monochoria vaginalis: 120 g/10a active ingredient, assessed 14 days after treatment, dry weight vs untreated area; for herbicidal rate, Lindernia pyxidaria / herbicidal rate, Monochoria vaginalis: 120 g/10a, rated 14 days after treatment, paddy soil pots
Procedure, shortened: as §5

[10] = tested on: Echinochloa crus-galli; experiment: as above; conditions: for Herbicidal rate (%) Echinochloa crus-galli: 120 g/10a active ingredient, assessed 14 days after treatment, dry weight vs untreated area; for herbicidal rate, Echinochloa crus-galli: 120 g/10a, rated 14 days after treatment, paddy soil pots
Procedure, shortened: as §5

[11] = 120 g/10a active ingredient, dry weight vs untreated area, 14 days after treatment
[12] = Lindernia pyxidaria, 120 g/10a active ingredient, dry weight vs untreated area, 14 days after treatment
[13] = Monochoria vaginalis, 120 g/10a active ingredient, dry weight vs untreated area, 14 days after treatment
[14] = 120 g/10a active ingredient, 14 days after treatment, dry weight vs untreated area
[15] = Lindernia pyxidaria, 120 g/10a active ingredient, 14 days after treatment, dry weight vs untreated area
[16] = Monochoria vaginalis, 120 g/10a active ingredient, 14 days after treatment, dry weight vs untreated area

| Compound | Herbicidal rate (%) Scirpus juncoides [1, 11] | Herbicidal rate (%) Lindernia pyxidaria [2, 12] | Herbicidal rate (%) Monochoria vaginalis [2, 13] | Herbicidal rate (%) Echinochloa crus-galli [3, 11] | herbicidal rate, Chenopodium album [4] | herbicidal rate, Echinochloa crus-galli [5] | herbicidal rate, Amaranthus viridis [6] | herbicidal rate, southern crabgrass [7] | Herbicidal rate (%) Scirpus juncoides [8] | Herbicidal rate (%) Lindernia pyxidaria [9] | Herbicidal rate (%) Monochoria vaginalis [9] | Herbicidal rate (%) Echinochloa crus-galli [10] | Herbicidal rate (%) Scirpus juncoides [1, 14] | Herbicidal rate (%) Lindernia pyxidaria [2, 15] | Herbicidal rate (%) Monochoria vaginalis [2, 16] | Herbicidal rate (%) Echinochloa crus-galli [3, 14] | herbicidal rate, Scirpus juncoides [8] | herbicidal rate, Lindernia pyxidaria [9] | herbicidal rate, Monochoria vaginalis [9] | herbicidal rate, Echinochloa crus-galli [10] |
| --- | --- | --- | --- | --- | --- | --- | --- | --- | --- | --- | --- | --- | --- | --- | --- | --- | --- | --- | --- | --- |
| CC(C)n1oc(=O)c(Cc2ccccc2NS(=O)(=O)C(F)(F)F)c1C1CC1 [Compound 1-83] | 90% | 100% | 70% | 90% | 40% | 50% | 40% | 40% | 60% | 40% | 40% | 40% |  |  |  |  |  |  |  |  |
| CCn1oc(=O)c(Cc2ccccc2NS(=O)(=O)C(F)(F)F)c1C [Compound 1-98] | 90% | 100% | 100% | 100% | 0% | 90% | 0% | 90% | 90% | 60% | 60% | 80% |  |  |  |  |  |  |  |  |
| Cc1c(Cc2ccccc2NS(=O)(=O)C(F)(F)F)c(=O)on1CC1CC1 [Compound 1-143] | 90% | 100% | 100% | 90% | 0% | 50% | 60% | 40% | 90% | 70% | 80% | 90% |  |  |  |  |  |  |  |  |
| Cc1c(Cc2ccccc2NS(=O)(=O)C(F)(F)F)c(=O)on1CCOCC(C)C [Compound 1-156] | 100% | 100% | 80% | 100% | 60% | 80% | 60% | 80% | 90% | 100% | 100% | 80% |  |  |  |  |  |  |  |  |
| Cc1c(Cc2ccccc2NS(=O)(=O)C(F)(F)F)c(=O)on1CCSC(C)C [Compound 1-166] | 90% | 90% | 90% | 100% | 60% | 90% | 60% | 90% | 90% | 90% | 90% | 100% |  |  |  |  |  |  |  |  |
| Cc1c(Cc2ccccc2NS(=O)(=O)C(F)(F)F)c(=O)on1C(C)c1ccccc1 (stereo not shown) [Compound 1-203] | 90% | 100% | 100% | 90% | 40% | 60% | 40% | 90% | 90% | 90% | 90% | 90% |  |  |  |  |  |  |  |  |
| Cc1c(Cc2ccccc2N(S(=O)(=O)C(F)(F)F)S(=O)(=O)C(F)(F)F)c(=O)on1CCc1ccccc1 [Compound 1-1043] | 90% | 100% | 100% | 100% |  |  |  |  | 90% | 100% | 100% | 90% |  |  |  |  |  |  |  |  |
| Cc1c(Cc2ccccc2N(S(=O)(=O)C(F)(F)F)S(=O)(=O)C(F)(F)F)c(=O)on1CCc1ccc(F)cc1 [Compound 1-1044] | 40% | 60% | 40% | 90% |  |  |  |  | 70% | 40% | 40% | 70% |  |  |  |  |  |  |  |  |
| Cc1c(Cc2ccccc2N(S(=O)(=O)C(F)(F)F)S(=O)(=O)C(F)(F)F)c(=O)on1CC(F)(F)c1ccccc1 [Compound 1-1047] | 90% | 100% | 80% | 90% |  |  |  |  | 80% | 90% | 80% | 80% |  |  |  |  |  |  |  |  |
| Cc1c(Cc2ccccc2N(S(=O)(=O)C(F)(F)F)S(=O)(=O)C(F)(F)F)c(=O)on1Cc1cccs1 [Compound 1-1054] |  |  |  |  |  |  |  |  |  |  |  |  | 90% | 100% | 100% | 90% | 90% | 100% | 100% | 90% |
| Cc1c(Cc2ccccc2N(S(=O)(=O)C(F)(F)F)S(=O)(=O)C(F)(F)F)c(=O)on1Cc1ccsc1 [Compound 1-1055] |  |  |  |  |  |  |  |  |  |  |  |  | 90% | 100% | 100% | 60% | 80% | 40% | 60% | 80% |
| Cc1c(Cc2ccccc2N(S(=O)(=O)C(F)(F)F)S(=O)(=O)C(F)(F)F)c(=O)on1C(C)c1ccsc1 (stereo not shown) [Compound 1-1057] |  |  |  |  |  |  |  |  |  |  |  |  | 90% | 80% | 80% | 90% | 80% | 60% | 80% | 80% |
| Cc1c(Cc2ccccc2N(S(=O)(=O)C(F)(F)F)S(=O)(=O)C(F)(F)F)c(=O)on1CCOc1ccccc1 [Compound 1-1058] |  |  |  |  |  |  |  |  |  |  |  |  | 90% | 80% | 70% | 90% | 80% | 80% | 90% | 90% |
| Cc1c(Cc2ccccc2N(S(=O)(=O)C(F)(F)F)S(=O)(=O)C(F)(F)F)c(=O)on1CCOCc1ccccc1 [Compound 1-1059] |  |  |  |  |  |  |  |  |  |  |  |  | 80% | 80% | 90% | 100% | 70% | 40% | 70% | 90% |
